Results: US20110257035A1, “IDENTIFICATION OF SIGNATURE GENES ASSOCIATED WITH HEPATOCELLULAR CARCINOMA” (Bayer Healthcare LLC, priority 2008, published 2011)
“Also recorded” adds a separate entry of the source.

Tests used:
Assay type in all cases: in vivo, human
[1] = tested on: plasma EGF; assay: Plasma EGF level, baseline vs C3D1, HCC patients
[2] = tested on: plasma HGF; assay: Plasma HGF ELISA, baseline vs C3D1, HCC patients
[3] = tested on: plasma VEGF; assay: Plasma VEGF ELISA, baseline vs C3D1, HCC patients
[4] = tested on: plasma bFGF; assay: Plasma bFGF level, baseline vs C3D1, HCC patients
[5] = tested on: hepatocellular carcinoma (HCC); assay: Overall survival / time to progression in placebo-controlled HCC trial (SHARP), Cox multivariate analysis
Text: Overall survival (OS) is defined as the time from randomization to death due to any cause. Overall survival (OS) of subjects alive at the time of analysis will be censored at their last date of follow-up.
Time to progression (TTP) is defined as the time from randomization to disease progression (radiological only). Patients without tumor progression at the time of analysis will be censored at their last date of tumor evaluation.

[6] = tested on: plasma IGF-2; assay: Plasma IGF-2 level, baseline vs C3D1, HCC patients
[7] = tested on: plasma Ang2; assay: Plasma Ang2 level, baseline vs C3D1, HCC patients
[8] = tested on: plasma c-KIT (s-c-Kit); assay: Plasma c-KIT ELISA, baseline vs cycle 3 day 1 (C3D1), HCC patients
Experimental: Plasma samples were obtained from patients at the time of screening, C3D1, and at the end of treatment visit.
All six assays were sandwich immunoassays obtained from commercial sources. All assays were performed according to the manufacturers' protocols, as summarized below. All samples were assayed in duplicate and the average value was used for correlative analysis.
ELISA kits for VEGF (cat #DVE00), s-VEGFR-2 (cat #DVR200), HGF (cat #DHG00), and c-KIT (cat #DSCR00) were obtained from R&D Systems.
A monoclonal capture antibody specific to the target protein was provided pre-coated in microplate wells. Appropriately diluted samples and standards were pipetted into the wells, allowing capture of the target protein by the immobilized antibodies. Unbound sample was washed away, and a horseradish peroxidase-conjugated antibody also specific for the target protein was added to the wells. Wells were washed again, and a substrate solution was added to each well. The colored reaction product was measured spectrophotometrically and was translated to the quantity (pg/mL or ng/mL) of biomarker protein in the sample by use of a simultaneously generated standard curve.

[9] = tested on: plasma Ras p21; assay: Plasma Ras p21 ELISA, baseline vs C3D1, HCC patients; details: for Ras p21 Δ from BL (e) / mean change in sorafenib arm: C3D1, mean of per-subject absolute change, p vs placebo 0.046
Experimental: ELISA kits for Ras p21 (cat #06490009) were from Oncogene Science Biomarker Group, part of Siemens Diagnostics, Cambridge, Mass. This assay detects all forms of circulating Ras p21 (H-Ras, N-Ras, and […]).
After washing, a streptavidin-horseradish peroxidase conjugate was added.

[10] = sorafenib-treated HCC patients, C3D1 vs baseline
[11] = plasma level, in response to sorafenib treatment
[12] = sorafenib arm, C3D1, mean of per-subject absolute change, p vs placebo <0.0001

CNC(=O)c1cc(Oc2ccc(NC(=O)Nc3ccc(Cl)c(C(F)(F)F)c3)cc2)ccn1 [Sorafenib]
EGF Δ from BL (e) ([1]; sorafenib arm, C3D1, mean of per-subject absolute change, p vs placebo 0.240): -8.9 pg/mL
EGF Mean (d) ([1]; sorafenib arm, C3D1, baseline mean 61.8): 53.4 pg/mL
Direction of change of plasma EGF in sorafenib [1, 10]: decreases; also recorded: Mixed
median absolute change of plasma HGF levels ([2]; intra-patient sorafenib-associated C3D1 change compared to baseline): -294.02 pg/mL
HGF Mean change in sorafenib arm [2, 11]: −7.4%
HGF Δ from BL (e) [2, 12]: -285.0 pg/mL
HGF Mean (d) ([2]; sorafenib arm, C3D1, baseline mean 2630.0): 2220.3 pg/mL
Direction of change of plasma HGF in response to sorafenib [2, 10]: attenuated; also recorded: decrease
VEGF Mean change in sorafenib arm [3, 11]: +195.7%
VEGF Δ from BL (e) ([3]; sorafenib arm, C3D1, mean of per-subject absolute change, p vs placebo 0.010): 66.8 pg/mL
VEGF Mean (d) ([3]; sorafenib arm, C3D1, baseline mean 100.7): 170.1 pg/mL
Direction of change of plasma VEGF in response to sorafenib [3, 10]: elevated; also recorded: increase
bFGF Δ from BL (e) ([4]; sorafenib arm, C3D1, mean of per-subject absolute change, p vs placebo 0.196): 2.5 pg/mL
Direction of change of plasma bFGF in sorafenib [4, 10]: None
time to progression and/or overall survival compared to placebo treated subjects ([5]; HCC patients): increases
Treatment HR for OS ([5]; multivariate analysis of all patients, sorafenib vs placebo, P-value 0.043): 0.779
IGF-2 Mean change in sorafenib [6, 11]: −11.3%
IGF-2 Δ from BL (e) ([6]; sorafenib arm, C3D1, mean of per-subject absolute change, p vs placebo 0.145): -129.4 ng/mL
IGF-2 Mean (d) ([6]; sorafenib arm, C3D1, baseline mean 938.8): 847.9 ng/mL
Direction of change of plasma IGF-2 in sorafenib [6, 10]: decreases
Ang2 Δ from BL (e) [7, 12]: -293.0 pg/mL
Ang2 Mean (d) ([7]; sorafenib arm, C3D1, baseline mean 7510.0): 6456.4 pg/mL
Direction of change of plasma Ang2 in sorafenib [7, 10]: attenuated and remain unchanged and does not change significantly and None
c-KIT Mean change in sorafenib arm [8, 11]: −33.9%
c-KIT Δ from BL (e) [8, 12]: -4.5 ng/mL
c-KIT Mean (d) ([8]; sorafenib arm, C3D1, baseline mean 12.2): 8.6 ng/mL
Direction of change of plasma c-KIT in response to sorafenib [8, 10]: attenuated; also recorded: decrease
Ras p21 Δ from BL (e) / mean change in sorafenib arm ([9]; sorafenib arm): -259.8 pg/mL
Ras p21 Δ from BL (e) / mean change in sorafenib arm ([9]; sorafenib arm, listed as sorafenib): -259.8 pg/mL
Ras p21 Mean (d) ([9]; sorafenib arm, C3D1, baseline mean 2115.7): 1144.7 pg/mL
Direction of change of plasma Ras p21 in response to sorafenib [9, 10]: attenuated; also recorded: decrease
